Experimental findings from ChEMBL document CHEMBL4130353, “2-Substituted 3,7,8-trimethylnaphtho[1,2-b]furan-4,5-diones as specific L-shaped NQO1-mediated redox modulators for the treatment of non-small cell lung cancer” (Eur J Med Chem, 2017) are described below.

The source made the active and inactive calls. The rule behind the calls is not given here. Bounds are passed on as bounds.

In general, solubility refers to the concentration that dissolves in the medium under given conditions. The low end stands for little dissolved substance, the high end for much dissolved substance. One may read the IC50 as the midpoint of a concentration-inhibition curve.

Data set [1] can be described thus: Solubility of the compound in diluted HCl buffer at pH 3. It counts as physicochemical.
The subject of data set [2] is A549. The data set can be described thus: Cytotoxicity against human A549 cells assessed as cell growth inhibition preincubated for 24 hrs followed by compound washout measured after 72 hrs by MTT assay. It is filed as functional, cell-based. On the technique in general: Formazan colour is commonly taken as a measure of viable cells.
Data set [3] deals with HepG2. Put plainly: Cytotoxicity against human HepG2 cells assessed as cell growth inhibition preincubated for 24 hrs followed by compound washout measured after 72 hrs by MTT assay. It counts as functional, cell-based.
In data set [4] the test system is HEK293. The data set can be described thus: Cytotoxicity against HEK293 cells assessed as cell growth inhibition preincubated for 24 hrs followed by compound washout measured after 72 hrs by MTT assay. It is filed as functional, cell-based. The note with it: Homo sapiens.
For data set [5], the system named is L02. Put plainly: Cytotoxicity against human L02 cells assessed as cell growth inhibition preincubated for 24 hrs followed by compound washout measured after 72 hrs by MTT assay. It counts as cell-based.
Data set [6] addresses NAD(P)H dehydrogenase [quinone] 1 (Homo sapiens) (UniProt P15559). Put plainly: Substrate activity at NQO1 in human A549 cells assessed as induction of enzyme-catalyzed lipid peroxidation by measuring MDA equivalents per protein at 5 uM after 24 hrs by TBARS assay (reference value: 3.53 +/- 1.12 nmol/mg). It counts as cell-based.
The test system of data set [7] is A549. Put plainly: Effect on total AKT protein levels in human A549 cells at 1 uM after 3 hrs by Western blot analysis relative to control. The note with it: a549, 3 h. It counts as ADME, cell-based. Background: In western blotting, separated proteins are transferred to a membrane and probed.
Data set [8] deals with NAD(P)H dehydrogenase [quinone] 1 (Homo sapiens) (UniProt P15559). The data set can be described thus: Substrate activity at NQO1 in human A549 cells assessed as induction of ROS-induced Akt phosphorylation at S473 at 1 uM after 3 hrs by Western blot analysis relative to control. It is filed as cell-based.
For data set [9] the target is unchanged. Put plainly: Substrate activity at NQO1 in human A549 cells assessed as induction of ROS-induced Akt phosphorylation at S473 at 10 uM after 3 hrs in presence of NAC by Western blot analysis relative to control. It counts as cell-based.
For data set [10] the target is unchanged. Put plainly: Substrate activity at NQO1 in human A549 cells assessed as induction of ROS-induced Akt phosphorylation at S473 at 10 uM after 3 hrs in presence of DIC by Western blot analysis relative to control. It is filed as cell-based.
The target is the same in data set [11]. The data set can be described thus: Substrate activity at NQO1 in human A549 cells assessed as induction of ROS-induced Akt phosphorylation at […] at 10 uM after 3 hrs in presence of NAC by Western blot analysis relative to control. It is filed as cell-based.
In data set [12] the test system is A549. Put plainly: Effect on total p38 protein levels in human A549 cells at 10 uM after 3 hrs in presence of DIC by Western blot analysis relative to control. It is filed as ADME, cell-based. Conditions: a549, 3 h.
In data set [13] the target is NAD(P)H dehydrogenase [quinone] 1 (Homo sapiens) (UniProt P15559). The data set can be described thus: Substrate activity at NQO1 in human A549 cells assessed as induction of ROS-induced p38 phosphorylation at T180/Y182 at 5 uM after 3 hrs by Western blot analysis relative to control. It counts as cell-based.
Data set [14] has the same target. Put plainly: Substrate activity at NQO1 in human A549 cells assessed as induction of ROS-induced p38 phosphorylation at T180/Y182 at 10 uM after 3 hrs in presence of NAC by Western blot analysis relative to control. It is filed as cell-based.
Data set [15] has as its system A549. Put plainly: Effect on total ERK protein levels in human A549 cells at 10 uM after 3 hrs in presence of DIC by Western blot analysis relative to control. It counts as ADME, cell-based. Conditions: a549, 3 h.
The target of data set [16] is NAD(P)H dehydrogenase [quinone] 1 (Homo sapiens) (UniProt P15559). Put plainly: Substrate activity at NQO1 in human A549 cells assessed as induction of ROS-induced ERK phosphorylation at 10 uM after 3 hrs in presence of DIC by Western blot analysis relative to control. It is filed as cell-based.
Data set [17] shares this target. The data set can be described thus: Substrate activity at NQO1 in human A549 cells assessed as induction of ROS-induced JNK phosphorylation after 3 hrs by Western blot analysis. It counts as cell-based.
The subject of data set [18] is A549. Put plainly: Induction of apoptosis in human A549 cells assessed as nuclei condensation at 0.1 to 5 uM after 24 hrs by DAPI-staining based microscopy. It is filed as functional, cell-based.

Sequence of NAD(P)H dehydrogenase [quinone] 1 (Homo sapiens) (P15559 whole entry): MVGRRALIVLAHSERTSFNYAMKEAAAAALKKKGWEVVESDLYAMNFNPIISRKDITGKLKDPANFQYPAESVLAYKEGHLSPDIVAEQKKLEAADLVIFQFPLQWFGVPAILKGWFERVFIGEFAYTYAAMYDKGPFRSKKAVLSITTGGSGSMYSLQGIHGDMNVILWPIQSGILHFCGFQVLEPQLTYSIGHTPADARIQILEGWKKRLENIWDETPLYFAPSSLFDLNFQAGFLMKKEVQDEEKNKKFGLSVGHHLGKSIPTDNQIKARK

Turning to `Cc1cc2c(cc1C)-c1oc(CNc3ccc(CN4CCOCC4)cc3)c(C)c1C(=O)C2=O`, in data set [1], the solubility was > 1000 µg/mL. Besides, the IC50 in [2] is 2.1 µM; in [3] it was 4.3 µM; in [4] it was 3.9 µM; in data set [5] it was 35 µM. The Activity in [6] was 10.3 nmol/mg; in [17] it was “Dose-dependent effect”. The “fold change (FC)” value is 1.07 in data set [7]; 1.51 in [8]; 0.32 in data set [9]; 1.36 in data set [10]; 2.8 in [11]; 1.03 in data set [12]. The fold change (FC) in data set [13] was found to be 12.1; in data set [14], 11.2; in data set [15], 0.87; in data set [16] it was 1.27. Moreover, the result in [18] was Active.
